Values of other authors as cited in patent publication US12551521B2, “Compositions including pine bark extract, berryfruit extract and a source of l-theanine and uses thereof” (AREPA IP LIMITED, priority 2017, dated 2026).

Details: in vivo

blood-brain barrier crossing: known to cross the blood-brain barrier
Compound: CCNC(=O)CC[C@H](N)C(=O)O [L-theanine, γ-glutamylethylamide]
